Measured values: patent US11254668B2, “Pyrazolo[1,5-A]pyrazin-4-yl and related derivatives” (Pfizer Inc., priority 2017, dated 2022)
pIC50: −log10 of the molar value. Like-named read-outs stand apart in the source and are kept apart here.

Experiments:
Type in all cases: biochemical
TYK2 = TYK2 (Homo sapiens (Human), UniProt P29597); assay: JAK Caliper Enzyme Assay at 1 mM ATP, TYK2
Outline: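 First, compound was incubated at room temperature with recombinant human kinase domain, a synthetic peptide and 1 mM ATP until 20–30% of peptide was phosphorylated. Next, EDTA stopped the reaction. Finally, electrophoretic separation quantified product, and percent effect relative to controls was plotted against concentration.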

JAK2 = JAK2 (Homo sapiens (Human), UniProt O60674); assay: JAK Caliper Enzyme Assay at 1 mM ATP, JAK2
Chain of JAK2 (O60674 849-1124): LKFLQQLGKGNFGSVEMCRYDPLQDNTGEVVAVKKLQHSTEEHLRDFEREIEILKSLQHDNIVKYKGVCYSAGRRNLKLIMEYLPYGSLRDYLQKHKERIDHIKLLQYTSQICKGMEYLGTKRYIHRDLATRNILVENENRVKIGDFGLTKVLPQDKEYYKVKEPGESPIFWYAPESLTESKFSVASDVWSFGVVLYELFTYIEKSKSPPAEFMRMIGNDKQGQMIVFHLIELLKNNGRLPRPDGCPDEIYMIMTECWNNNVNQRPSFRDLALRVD
Protocol: Compounds of the invention were evaluated by in vitro methods to determine their respective ability to inhibit the JAK kinases (TYK2, JAK1, JAK2, JAK3).
The human JAK inhibitory activity was determined by using a microfluidic assay to monitor phosphorylation of a synthetic peptide by the recombinant human kinase domain of each of the four members of the JAK family, JAK1, JAK2, JAK3 and TYK2. […] Each assay condition was optimized for enzyme concentration and room temperature incubation time to obtain a conversion rate of 20% to 30% phosphorylated peptide product. Reactions were terminated by the addition of stop buffer containing EDTA. Utilizing the LabChip 3000 mobility shift technology (Caliper Life Science), each assay reaction was sampled to determine the level of phosphorylation. This technology is separation-based, allowing direct detection of fluorescently labeled substrates and products. Separations are controlled by a combination of vacuum pressure and electric field strength optimized for each peptide substrate.
JAK Caliper Enzyme Assay at 1mM ATP
Compounds were added to a 384-well plate.
The data was collected using the HTS Well Analyzer software from Caliper Life Sciences. The data output for data analysis is the percent product converted calculated on peak height (Equation 1). % product converted=100*((product)/(product+substrate)) Equation 1: […]
The percent effect at each compound concentration was calculated based on the positive and negative control well contained within each assay plate (Equation 2). […] The negative control wells contained DMSO alone (at the same concentration as the compound wells) that was used to set the baseline activity in the assay (i.e., uninhibited JAK1, JAK2, JAK3 or TYK2). % effect=100*([…](positive control-negative control)) Equation 2: […]
The percent effect was plotted against the compound concentration compound.

JAK3 = JAK3 (Homo sapiens (Human), UniProt P52333); assay: JAK Caliper Enzyme Assay at 1 mM ATP, JAK3
Chain of JAK3 (P52333 822-1111): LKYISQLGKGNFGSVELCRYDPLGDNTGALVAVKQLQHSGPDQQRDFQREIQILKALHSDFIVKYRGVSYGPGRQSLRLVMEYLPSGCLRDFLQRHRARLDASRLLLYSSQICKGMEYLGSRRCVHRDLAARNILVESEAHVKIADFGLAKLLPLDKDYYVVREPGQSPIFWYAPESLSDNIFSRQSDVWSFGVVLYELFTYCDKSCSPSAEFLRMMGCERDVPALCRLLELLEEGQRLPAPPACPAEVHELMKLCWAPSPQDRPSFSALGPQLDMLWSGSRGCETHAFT
Outline: (§1)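 Recombinant human kinase domains phosphorylate a fluorescent synthetic peptide at 1 mM ATP, room temperature, with enzyme and time tuned for 20-30% conversion; EDTA-stopped. Product/substrate separated by microfluidic mobility shift; percent effect versus DMSO and positive controls fitted to IC50 (nM).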

JAK1 = JAK1 (Homo sapiens (Human), UniProt P23458); assay: JAK Caliper Enzyme Assay at 1 mM ATP, JAK1
Chain of JAK1 (P23458 875-1153): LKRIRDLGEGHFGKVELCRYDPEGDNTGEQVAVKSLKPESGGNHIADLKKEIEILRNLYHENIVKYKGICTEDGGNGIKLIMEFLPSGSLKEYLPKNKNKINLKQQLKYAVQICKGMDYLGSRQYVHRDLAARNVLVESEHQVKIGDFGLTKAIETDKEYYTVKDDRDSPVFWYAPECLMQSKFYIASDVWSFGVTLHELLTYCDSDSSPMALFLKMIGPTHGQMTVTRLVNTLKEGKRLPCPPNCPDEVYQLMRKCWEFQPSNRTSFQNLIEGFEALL
Outline: as §1

Chain of TYK2 (P29597 897-1176): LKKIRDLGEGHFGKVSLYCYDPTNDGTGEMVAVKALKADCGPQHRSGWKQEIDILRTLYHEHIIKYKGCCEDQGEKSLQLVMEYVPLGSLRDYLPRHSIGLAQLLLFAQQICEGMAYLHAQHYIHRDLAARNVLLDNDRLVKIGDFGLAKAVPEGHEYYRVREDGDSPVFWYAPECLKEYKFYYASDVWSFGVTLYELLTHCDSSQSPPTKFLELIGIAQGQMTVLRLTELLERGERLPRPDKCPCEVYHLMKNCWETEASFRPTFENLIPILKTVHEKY

pIC50 (TYK2)	pIC50 (JAK2)	pIC50 (JAK3)	pIC50 (JAK1)	pIC50 (TYK2; JAK Caliper enzyme assay)	pIC50 (JAK2; JAK Caliper enzyme assay)	pIC50 (JAK3; JAK Caliper enzyme assay)	pIC50 (JAK1; JAK Caliper enzyme assay)	SMILES
6.11	< 5.00	< 5.00	< 5.00	–	–	–	–	N#CCC1(n2ncc(-c3cc(-c4scnc4CO)cc4ncccc34)n2)CC(C#N)C1 (stereo not drawn) [Example 344, trans-3-(cyanomethyl)-3-(4-{7-[4-(hydroxymethyl)-1,3-thiazol-5-yl]quinolin-5-yl}-2H-1,2,3-triazol-2-yl)cyclobutanecarbonitrile]
7.05	6.11	< 5.00	5.88	–	–	–	–	Cc1n[nH]cc1-c1cc2ncccc2c(-c2ccn([C@]3(CC#N)C[C@@H](C#N)C3)n2)n1 [Example 89, trans-3-(cyanomethyl)-3-{3-[7-(3-methyl-1H-pyrazol-4-yl)-1,6-naphthyridin-5-yl]-1H-pyrazol-1-yl}cyclobutanecarbonitrile]
7.77	7.70	5.98	7.19	–	–	–	–	N#CC[C@]1(n2ccc(-c3nc(-c4cnn(CCO)c4)cc4ncccc34)n2)C[C@@H](C#N)C1 [Example 127, cis-3-(cyanomethyl)-3-(3-{7-[1-(2-hydroxyethyl)-1H-pyrazol-4-yl]-1,6-naphthyridin-5-yl}-1H-pyrazol-1-yl)cyclobutanecarbonitrile]
7.12	6.03	< 5.00	5.30	–	–	–	–	CS(=O)(=O)N1CC(CC#N)(n2ccc(-c3nc(-c4cccnc4N)cc4ncccc34)n2)C1 [Example 191]
6.75	5.70	< 5.00	5.25	–	–	–	–	CS(=O)(=O)N1CC(CC#N)(n2ccc(-c3cc(-c4cc[nH]n4)cc4ncccc34)n2)C1 [Example 283, [1-(methylsulfonyl)-3-{3-[7-(1H-pyrazol-3-yl)quinolin-5-yl]-1H-pyrazol-1-yl}azetidin-3-yl]acetonitrile]
6.66	5.39	< 5.00	5.39	–	–	–	–	CCN1CC(CC#N)(n2ccc(-c3nc(-c4ccc(O)nc4)cc4ncccc34)n2)C1 [Example 184]
6.88	5.91	< 5.00	5.23	–	–	–	–	CO[C@H]1C[C@](CC#N)(n2ccc(-c3nc(-c4cnn(CCO)c4)cc4ncccc34)n2)C1 [Example 129, [trans-1-(3-{7-[1-(2-hydroxyethyl)-1H-pyrazol-4-yl]-1,6-naphthyridin-5-yl}-1H-pyrazol-1-yl)-3-methoxycyclobutyl]acetonitrile]
7.15	6.18	< 5.00	5.15	–	–	–	–	Cn1cc(-c2cc(-c3cnn(C4(CC#N)CC(C#N)C4)n3)c3cccnc3c2)c(CO)n1 (stereo not drawn) [Example 329, trans-3-(cyanomethyl)-3-(4-{7-[3-(hydroxymethyl)-1-methyl-1H-pyrazol-4-yl]quinolin-5-yl}-2H-1,2,3-triazol-2-yl)cyclobutanecarbonitrile]
–	–	–	–	7.41	6.68	< 5.00	5.63	N#CC[C@]1(n2ncc(-c3cc(-c4cc[nH]c(=O)c4)cc4ncccc34)n2)C[C@@H](C#N)C1 [Example 410, cis-3-(cyanomethyl)-3-{4-[7-(2-oxo-1,2-dihydropyridin-4-yl)quinolin-5-yl]-2H-1,2,3-triazol-2-yl}cyclobutanecarbonitrile]
6.71	6.16	< 5.00	5.20	–	–	–	–	Cn1cc(-c2cc3ncccc3c(-n3ccc(C4(CC#N)CN(CC(F)(F)F)C4)n3)n2)cn1 [Example 279, [3-{1-[7-(1-methyl-1H-pyrazol-4-yl)-1,6-naphthyridin-5-yl]-1H-pyrazol-3-yl}-1-(2,2,2-trifluoroethyl)azetidin-3-yl]acetonitrile]
7.15	6.20	< 5.00	6.02	–	–	–	–	Cc1cc(-c2cc3ncccc3c(-c3ccn(C4(CC#N)CN(CC(F)(F)F)C4)n3)n2)ccn1 [Example 176, [3-{3-[7-(2-methylpyridin-4-yl)-1,6-naphthyridin-5-yl]-1H-pyrazol-1-yl}-1-(2,2,2-trifluoroethyl)azetidin-3-yl]acetonitrile]
–	–	–	–	6.91	6.27	< 5.00	5.36	Cc1nc(-c2cc(-c3cnn([C@]4(CC#N)C[C@@H](C#N)C4)n3)c3cccnc3c2)ccc1CCO [Example 379, trans-3-(cyanomethyl)-3-(4-{7-[5-(2-hydroxyethyl)-6-methylpyridin-2-yl]quinolin-5-yl}-2H-1,2,3-triazol-2-yl)cyclobutanecarbonitrile]
7.85	7.59	5.22	7.43	–	–	–	–	N#CCC1CC(CC#N)(n2cc(-c3nc(-c4cn[nH]c4)cc4ncccc34)cn2)C1 (stereo not drawn) [Example 3, 2,2′-(cis-1-{4-[7-(1H-pyrazol-4-yl)-1,6-naphthyridin-5-yl]-1H-pyrazol-1-yl}cyclobutane-1,3-diyl)diacetonitrile]
7.51	6.61	< 5.00	5.79	–	–	–	–	Cn1ccc(-c2cc(-c3cnn([C@]4(CC#N)C[C@@H](C#N)C4)n3)c3cccnc3c2)n1 [Example 312, trans-3-(cyanomethyl)-3-{4-[7-(1-methyl-1H-pyrazol-3-yl)quinolin-5-yl]-2H-1,2,3-triazol-2-yl}cyclobutanecarbonitrile]
–	–	–	–	5.46	< 5.00	< 5.00	< 5.00	CS(=O)(=O)N1CC(CC#N)(n2ncc(-c3cc(-c4cnc(N)nc4)cc4ncccc34)n2)C1 [Example 393, [3-{4-[7-(2-aminopyrimidin-5-yl)quinolin-5-yl]-2H-1,2,3-triazol-2-yl}-1-(methylsulfonyl)azetidin-3-yl]acetonitrile]
–	–	–	–	7.12	6.74	< 5.00	5.65	N#CC[C@]1(n2ncc(-c3cc(-c4cn5ccnc5c(N)n4)cc4ncccc34)n2)C[C@@H](C#N)C1 [Example 423, cis-3-{4-[7-(8-aminoimidazo[1,2-a]pyrazin-6-yl)quinolin-5-yl]-2H-1,2,3-triazol-2-yl}-3-(cyanomethyl)cyclobutanecarbonitrile]
5.38	< 5.00	< 5.00	< 5.00	–	–	–	–	Cc1ncc(-c2cc3ncccc3c(-c3ccn(C4(CC#N)CN(CC(F)(F)F)C4)n3)n2)n1C [Example 152, [3-{3-[7-(1,2-dimethyl-1H-imidazol-5-yl)-1,6-naphthyridin-5-yl]-1H-pyrazol-1-yl}-1-(2,2,2-trifluoroethyl)azetidin-3-yl]acetonitrile]
5.86	5.17	< 5.00	< 5.00	–	–	–	–	N#CCC1(n2ccc(-c3nc(-c4cncc(F)c4)cc4ncccc34)n2)CN(CC(F)(F)F)C1 [Example 178, [3-{3-[7-(5-fluoropyridin-3-yl)-1,6-naphthyridin-5-yl]-1H-pyrazol-1-yl}-1-(2,2,2-trifluoroethyl)azetidin-3-yl]acetonitrile]
7.35	6.63	< 5.00	6.31	–	–	–	–	N#CC[C@]1(n2ccc(-c3nc(-c4ccc(N)nc4)cc4ncccc34)n2)C[C@H](C#N)C1 [Example 196, trans-3-{3-[7-(6-aminopyridin-3-yl)-1,6-naphthyridin-5-yl]-1H-pyrazol-1-yl}-3-(cyanomethyl)cyclobutanecarbonitrile]
7.00	5.66	< 5.00	5.51	–	–	–	–	CO[C@H]1C[C@](CC#N)(n2ccc(-c3nc(-c4cn[nH]c4)cc4ncccc34)n2)C1 [Example 81, (trans-3-methoxy-1-{3-[7-(1H-pyrazol-4-yl)-1,6-naphthyridin-5-yl]-1H-pyrazol-1-yl}cyclobutyl)acetonitrile]
7.09	6.00	< 5.00	5.61	–	–	–	–	CS(=O)(=O)N1CC(CC#N)(n2ccc(-c3nc(-c4cnc(N)c(N)c4)cc4ncccc34)n2)C1 [Example 229, [3-{3-[7-(5,6-diaminopyridin-3-yl)-1,6-naphthyridin-5-yl]-1H-pyrazol-1-yl}-1-(methylsulfonyl)azetidin-3-yl]acetonitrile]

SMILES	pIC50 (TYK2)	pIC50 (JAK2)	pIC50 (JAK3)	pIC50 (JAK1)	pIC50 (TYK2; JAK Caliper enzyme assay)	pIC50 (JAK2; JAK Caliper enzyme assay)	pIC50 (JAK3; JAK Caliper enzyme assay)	pIC50 (JAK1; JAK Caliper enzyme assay)
N#CCC1(n2ncc(-c3cc(-c4cc(C(N)=O)ccn4)cc4ncccc34)n2)CC(C#N)C1 (stereo not drawn) [Example 353, 2-(5-{2-[cis-3-cyano-1-(cyanomethyl)cyclobutyl]-2H-1,2,3-triazol-4-yl}quinolin-7-yl)pyridine-4-carboxamide]	5.80	< 5.00	< 5.00	5.02	–	–	–	–
